The target in assay [1] is T1, human neutrophil elastase (HNE) (Homo sapiens, UniProt P08246).
T1 construct: purchased Sigma
T1 sequence (P08246 30-267): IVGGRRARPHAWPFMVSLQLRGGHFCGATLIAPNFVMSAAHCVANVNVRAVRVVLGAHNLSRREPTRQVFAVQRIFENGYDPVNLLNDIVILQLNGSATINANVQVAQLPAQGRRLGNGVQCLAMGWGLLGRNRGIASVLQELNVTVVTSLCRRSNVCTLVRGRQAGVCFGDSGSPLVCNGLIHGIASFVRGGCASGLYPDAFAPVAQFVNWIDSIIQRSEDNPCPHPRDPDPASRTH
Nature of the assay: Specificity assay, human neutrophil elastase. The class given is biochemical. Conditions: read-out: HNE activity in the specificity assays (IC50). The method, then:
(§1) The specificities of compounds of the present invention were determined against a variety of serine proteases: human neutrophil elastase (HNE), porcine pancreatic elastase (PPE) and human pancreatic chymotrypsin and one cysteine protease: human liver cathepsin B. In all cases a 96-well plate format protocol using calorimetric p-nitroaniline (pNA) substrate specific for each enzyme was used as described previously (PCT Patent Application No. WO 00/09543) with some modifications to the serine protease assays. All enzymes were purchased from Sigma while the substrates were from Bachem.
(§2) Each assay included a 2 hr enzyme-inhibitor pre-incubation at room temperature followed by addition of substrate and hydrolysis to ˜30% conversion as measured on a Spectramax Pro microplate reader. Compound concentrations varied from 100 to 0.4 micromolar (“μM”) depending on their potency. […]
(§3) The percentage of inhibition was calculated using the formula: [1−((UVinh−UVblank)/(UVctl−UVblank))]×100 […]

The target in assay [2] is T2, porcine pancreatic elastase (PPE) (Sus scrofa, UniProt P00772).
T2 construct: purchased Sigma
T2 sequence (P00772 27-266): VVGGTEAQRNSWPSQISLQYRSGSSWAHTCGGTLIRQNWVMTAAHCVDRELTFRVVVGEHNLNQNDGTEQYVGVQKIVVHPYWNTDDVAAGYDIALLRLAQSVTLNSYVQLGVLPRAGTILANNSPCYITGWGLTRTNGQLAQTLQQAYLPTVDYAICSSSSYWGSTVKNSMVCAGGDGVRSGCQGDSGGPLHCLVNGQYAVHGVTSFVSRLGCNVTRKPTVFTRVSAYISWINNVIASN
Nature of the assay: Specificity assay, porcine pancreatic elastase. The class given is biochemical. Conditions: read-out: PPE activity in the specificity assays (IC50). The method, then:
as §1, §2, §3

Assay [3] relates to HCV replicon. As to the kind of experiment: Two-drug combination studies in HCV replicon system, combination index (Chou). Format: cell-based. Conditions: for pEC50: monotherapy, NS3 protease inhibitor = compound 28, read-out: NS3 protease inhibitor EC50. An excerpt:
Since clinical drug resistance often develops in viral infections following single-agent therapies, there is a need to assess the additive, antagonistic, or synergistic properties of combination therapies. We used the HCV replicon system, as described above, to assess the potential use of our NS3 protease macrocyclic inhibitor in combination therapies with Intron A and inhibitors targeting other HCV proteins. Three HCV antivirals, Intron A (recombinant Interferon alfa-2b) an HCV NS5A inhibitor having the following structure:
In addition, compound 28 was also tested in 3-drug combinations with the NS5A and NS5B inhibitors.
(§4) For the experiments shown in Tables 8 and 9, inhibitors were tested at eleven concentrations each. 200× stock solutions of each inhibitor concentration were prepared by 2- or 3-fold dilution in DMSO prior to addition to cells/media. The drugs were tested as monotherapies and in combination with the NS3 protease inhibitor at various concentration ratios. Cells were exposed to compounds for 4 days and the amount of HCV inhibition was then determined using the FRET assay. The potential cytotoxicities of these combined agents were also analyzed in parallel by Alamar Blue staining. […] The degree of antagonism, additivity, or synergy was determined over a range of drug concentrations, and combination response curves were fit to assess the antiviral effects of the drug treatment combinations. The concentration ratios were analyzed using the method of Chou (Chou, Ting-Chao, and Rideout (Editors), (1991) Synergism and Antagonism in Chemotherapy, P. 61–101, Academic Press, New York). Tables 8 and 9 report the estimated EC50 values for the compounds tested, as well as the combination indices (CI). All estimates were computed using SAS Proc NLIN, and a two-parameter logistic. All combination indices were tested for departure from additivity using isobologram methods. Asymptotic confidence intervals were also calculated for each of the combination indices. These intervals are used to test for departure from additivity by comparing the bounds to one—a lower bound of the interval greater than 1 indicates antagonism, an upper bound of less than 1 indicates synergism, and a value of 1 contained in the interval indicates additivity.

Assay [4] has as its system HCV replicon. As to the kind of experiment: Three-drug combination studies in HCV replicon system, combination index. Format: cell-based. The method, then: […] an NS5B replicase inhibitor (compound 2006; WO 03/010141), were tested in 2-drug combinations with the macrocyclic HCV NS3 protease inhibitor compound 28. In addition, compound 28 was also tested in 3-drug combinations with the NS5A and NS5B inhibitors.
as §4
Compound 28 was also tested in 3-drug combination experiments with the NS5A inhibitor and the NS5B inhibitor (Table 12). The starting concentrations for the mono-therapies consisted of a 0.667 μM solution of the NS5A inhibitor, a 0.3 μM solution of compound 28, and a 2.5 μM solution of the NS5B inhibitor. The starting concentration for the triple combination contained a mixture of ⅓ of each of the above concentrations. Dose response curves for all three mono-therapies and the triple combination therapy were obtained using 3-fold dilutions, and data analysis was carried out as described above for combination index experiments.

[5] abbreviates: 75, 90 and 95% effective doses, two experiments.

pEC50, pIC50: −log10 of the molar value. “Also recorded” adds a separate entry of the source.

Take `CC(C)(C)OC(=O)N[C@H]1CCCCC/C=C\[C@@H]2C[C@@]2(C(=O)NS(C)(=O)=O)NC(=O)[C@@H]2C[C@@H](Oc3nccc4ccccc34)CN2C1=O` [Compound 2, [18-(Isoquinolin-1-yloxy)-4-methanesulfonylaminocarbonyl-2,15-dioxo-3,16-diaza-tricyclo[14.3.0.0^4,6]nonadec-7-en-14-yl]-carbamic acid tert-butyl ester]: the pIC50 in assay [1] and in assay [2] was under 4.00 in each case.
Take `COc1ccc2c(OC3CC4C(=O)NC5(C(=O)NS(=O)(=O)C6CC6)CC5C=CCOCCCC(NC(=O)OC(C)(C)C)C(=O)N4C3)nccc2c1` (stereo not drawn) [Compound 28, [4-Cyclopropanesulfonylaminocarbonyl-18-(6-methoxy-isoquinolin-1-yloxy)-2,15-dioxo-10-oxa-3,16-diaza-tricyclo[14.3.0.0^4,6]nonadec-7-en-14-yl]-carbamic acid tert-butyl ester]: the “combination effect with Intron A (Interferon alfa-2b)” value in the assay with HCV replicon [3] (setting [5]) is reported as “either synergistic or additivity effects; also recorded: no drug antagonism”. Besides, the “combination effect with the HCV NS5A inhibitor” value with HCV replicon [3] (setting [5]) is given as “Synergy or additivity; also recorded: no drug antagonism”. For the same compound, the pEC50 is 8.05 with HCV replicon [3] (Hepatitis C virus, Table 9 (combinations with an NS5A inhibitor)); 7.96 in the assay with HCV replicon [3] (Table 9 (combinations with an NS5A inhibitor)); 8.00 with HCV replicon [3] (Table 8 (combinations with Interferon alfa-2b)); 8.10 in the assay with HCV replicon [4] (Hepatitis C virus, mono-therapy in the three-drug combination experiment, HCV replicon, NS3 Pr inhibitor is compound 28, read-out: NS3 Pr inhibitor EC50). Besides, the “combination effect, 3-drug combination with the NS5A inhibitor and the NS5B inhibitor” value with HCV replicon [4] (75, 90 and 95% effective doses) is listed as “Synergistic effects; also recorded: No drug antagonism”.

For the origin of these results see US7173004B2, “Macrocyclic isoquinoline peptide inhibitors of hepatitis C virus” (Bristol-Myers Squibb Company, priority 2003, dated 2007).
